Reference: US11090304B2 (Amgen Inc., priority 2018, dated 2021)
Read-outs that look alike come from different tables or passages of the source.

Experiments:
[1] = tested on: Phosphorylation of ERK1/2 in MIA PaCa-2 cells; experiment: Phospho-ERK1/2 MSD assay in MIA PaCa-2 cells; assay type: cell-based
Procedure, shortened: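 Following a 2 or 4 h incubation with titrated compound, cells receive a 10 min pulse of 10 ng/mL EGF. Phospho-ERK1/2 in RIPA lysates is then quantified by MSD immunoassay, and IC50 values come from a four-parameter logistic model.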

[2] = molecular target: GDP-bound KRAS protein (aa 1-169), containing both G12C and C118A amino acid substitutions (Homo sapiens, UniProt P01116, C118A/G12C); experiment: Coupled nucleotide exchange assay (SOS-mediated, AlphaScreen); assay type: biochemical; conditions: for Coupled exchange IC50 (5 min): 5 min compound pre-incubation; for Coupled exchange IC50 (2 h): 2 h compound pre-incubation
Chain of GDP-bound KRAS protein (aa 1-169), containing both G12C and C118A amino acid substitutions (P01116 1-169 isoform P01116-2 G12C/C118A): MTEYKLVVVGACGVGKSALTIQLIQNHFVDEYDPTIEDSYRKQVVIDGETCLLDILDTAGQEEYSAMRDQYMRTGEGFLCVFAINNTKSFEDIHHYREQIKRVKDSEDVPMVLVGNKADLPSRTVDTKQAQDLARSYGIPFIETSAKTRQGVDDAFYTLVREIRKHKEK

[3] = tested on: Phosphorylation of ERK1/2 in A549 cells; experiment: Phospho-ERK1/2 MSD assay in A549 cells; assay type: cell-based; conditions: Homo sapiens
Experimental: For compounds in Table 89, the following assay conditions were employed:
Phospho-ERK1/2 MSD Assay:
Sixteen hours prior to compound treatment, MIA PaCa-2 or A549 cells were seeded in 96-well cell culture plates at a density of 25,000 cells/well and incubated at 37° C., 5% CO2. A compound dose-response titration was diluted in growth media, added to appropriate wells of a cell culture plate, and then incubated at 37° C., 5% CO2 for 2 or 4 hours (see Table 15). Following compound treatment, cells were stimulated with 10 ng/mL EGF (Roche 11376454001) for 10 min, washed with ice-cold Dulbecco's phosphate-buffered saline, no Ca^2+ or Mg^2+ (ThermoFisher Scientific 14190144), and then lysed in RIPA buffer (50 mM Tris-HCl pH 7.5, 1% Igepal, 0.5% sodium deoxycholate, 150 mM NaCl, and 0.5% sodium dodecyl sulfate) containing protease inhibitors (Roche 4693132001) and phosphatase inhibitors (Roche 4906837001). Phosphorylation of ERK1/2 in compound-treated lysates was assayed using Phospho-ERK1/2 Whole Cell Lysate kits (Meso Scale Discovery K151DWD) according to the manufacturer's protocol. Assay plates were read on a Meso Scale Discovery Sector Imager 6000, and data were analyzed using a 4-parameter logistic model to calculate IC50 values.

[4] = Homo sapiens, MIA PaCa-2, 2 h, read-out: p-ERK IC50 (2 h; MIA PaCa-2), 2 h compound treatment
[5] = A549, 2 h, read-out: p-ERK IC50 (2 h; A549), 2 h compound treatment
[6] = A549, 4 h, read-out: p-ERK IC50 (4 h; A549), 4 h compound treatment
[7] = read-out: p-ERK IC50 (2 h; MIA PaCa-2), 2 h compound treatment
[8] = Homo sapiens, MIA PaCa-2, 4 h, read-out: p-ERK IC50 (4 h; MIA PaCa-2), 4 h compound treatment

Which results are given for `C=CC(=O)N1CCN(c2nc(=O)n(-c3ccccc3C(C)C)c3cc(Br)c(Cl)cc23)[C@@H](C)C1` (single isomer, unassigned) [Example 9-17-2]?
IC50 [1, 4]: 1060 nM; IC50 ([1]; read-out: p-ERK IC50 (4 h; MIA PaCa-2), 4 h compound treatment): 859 nM; Coupled exchange IC50 (5 min) [2]: 1.66 µM; Coupled exchange IC50 (2 h) [2]: 163 nM; IC50 [3, 5]: ≥ 10000 nM; IC50 [3, 6]: ≥ 100000 nM

Which results are given for `C=CC(=O)N1CCN(c2nc(=O)n(-c3cccnc3C(C)C)c3nc(-c4ccccc4F)c(Cl)cc23)[C@@H](C)C1` (single isomer, unassigned) [Example 54-9-1]?
IC50 [1, 7]: 76 nM; Coupled exchange IC50 (5 min) [2]: 0.302 | nda μM; IC50 [3, 5]: ≥ 10000 nM

With `C=CC(=O)N1CCN(c2nc(=O)n(-c3c(C)ncnc3C(C)C)c3nc(-c4ccccc4F)c(Cl)cc23)[C@@H](C)C1` (single isomer, unassigned) [Example 55-13-2] as the molecule, how does the IC50 [1, 4] read?
The IC50 was 55 nM.

What about the “Coupled exchange IC50 (5 min)” value [2] of the same molecule?
The value was 0.02 | nda μM.

What about the IC50 [3, 5] of the same molecule?
Its IC50 is no less than 10000 nM.

What does the source list for `C=CC(=O)N1CCN(c2nc(=O)n(-c3c(C)cc(N(C)C)cc3C(C)C)c3nc(-c4ccccc4F)c(Cl)cc23)[C@@H](C)C1` (single isomer, unassigned) [Example 55-16-2]?
IC50 [1, 4]: 123 nM; Coupled exchange IC50 (5 min) [2]: 0.039 | nda μM; IC50 [3, 5]: ≥ 10000 nM

How did the IC50 [1, 4] turn out when `C=CC(=O)N1CCN(c2nc(=O)n(-c3nccnc3C(C)(C)C)c3nc(-c4c(O)cccc4F)c(Cl)cc23)[C@@H](C)C1` (single isomer, unassigned) [Example 55-23-2] was run?
The IC50 was 77 nM.

What about the “Coupled exchange IC50 (5 min)” value [2] of the same molecule?
The value was 0.062 | nda μM.

And the IC50 [3, 5]?
The IC50 was no less than 10000 nM.

Which results are given for `C=CC(=O)N1CCN(c2nc(=O)n(-c3ccccc3C(C)C)c3nc(-c4c(O)cccc4F)c(F)cc23)[C@@H](C)C1` (single isomer, unassigned) [Example 57-6-2]?
IC50 [1, 7]: 99 nM; Coupled exchange IC50 (5 min) [2]: 0.208 | nda μM; IC50 [3, 5]: ≥ 10000 nM

`C=CC(=O)N1CCN(c2nc(=O)n(-c3ccccc3C(C)C)c3nc(-c4ccccc4F)c(F)cc23)[C@@H](C)C1` (single isomer, unassigned) [Example 57-7-2] was tested. Which IC50 [1, 4] did it give?
Its IC50 is 236 nM.

And the “Coupled exchange IC50 (5 min)” value [2]?
The value was 0.384 | nda μM.

And the IC50 [3, 5]?
The IC50 was no less than 10000 nM.

For `C=CC(=O)N1CCN(c2nc(=O)n(-c3ccccc3C(C)C)c3nc(N4CCCCC4)c(Cl)cc23)[C@@H](C)C1` (single isomer, unassigned) [Example 69-1-2], which IC50 [1, 4] is on record?
The IC50 was 1020 nM.

And the “Coupled exchange IC50 (5 min)” value [2]?
The value was 0.604 | nda μM.

What about the IC50 [3, 5] of the same molecule?
The IC50 was no less than 10000 nM.

For `C=CC(=O)N1C[C@H](C)N(c2nc(=O)n(-c3c(C)ccnc3C(C)C)c3nc(-c4c(O)cccc4F)c(F)cc23)[C@@H](C)C1` (single isomer, unassigned) [Example 75-3], which IC50 [1, 4] is on record?
Its IC50 is 27 nM.

And the “Coupled exchange IC50 (5 min)” value [2]?
The value was 0.029 | nda μM.

And the IC50 [3, 5]?
The IC50 was no less than 10000 nM.

How did the IC50 [1, 4] turn out when `C=CC(=O)N1CCN(c2nc(=O)n(-c3c(C)ccnc3C(C)C)c3nc(-c4ccccc4F)c(Cl)nc23)[C@@H](C)C1` (single isomer, unassigned) [Example 111-1] was run?
Its IC50 is 102 nM.

What about the “Coupled exchange IC50 (5 min)” value [2] of the same molecule?
The value was 0.076 | nda μM.

And the IC50 [3, 5]?
The IC50 was no less than 10000 nM.

For `C=CC(=O)N1CCN(c2nc(=O)n(-c3c(C)cccc3C)c3nc(-c4c(O)cccc4F)c(Cl)cc23)CC1` [Example 8-8, 6-chloro-1-(2,6-dimethylphenyl)-7-(2-fluoro-6-hydroxyphenyl)-4-(4-(2-propenoyl)-1-piperazinyl)pyrido[2,3-d]pyrimidin-2(1H)-one], which IC50 [1, 4] is on record?
Its IC50 is 327 nM.

And the IC50 [1, 8]?
Its IC50 is 143 nM.

And the “Coupled exchange IC50 (5 min)” value [2]?
The value was 0.653 µM.

What about the “Coupled exchange IC50 (2 h)” value [2] of the same molecule?
Its value is 117 nM.

What about the IC50 [3, 6] of the same molecule?
The IC50 was no less than 100000 nM.

Which results are given for `C=CC(=O)N1CCN(c2nc(=O)n(C(CC)CC)c3nc(Cl)c(Cl)cc23)[C@@H](C)C1` [Example 54-3, 6,7-dichloro-4-((2S)-2-methyl-4-(2-propenoyl)-1-piperazinyl)-1-(3-pentanyl) pyrido[2,3-d]pyrimidin-2(1H)-one]?
IC50 [1, 8]: 8580 nM; Coupled exchange IC50 (2 h) [2]: nda | 0.781 μM; IC50 [3, 6]: ≥ 100000 nM

What does the source list for `C=CC(=O)N1CCN(c2nc(=O)n(CC3(C(F)(F)F)CC3)c3nc(-c4c(O)cccc4F)c(Cl)cc23)[C@@H](C)C1` [Example 54-5, 6-chloro-7-(2-fluoro-6-hydroxyphenyl)-4-((2S)-2-methyl-4-(2-propenoyl)-1-piperazinyl)-1-((1-(trifluoromethyl)cyclopropyl)methyl)pyrido [2,3-d]pyrimidin-2(1H)-one]?
IC50 [1, 4]: 554 nM; Coupled exchange IC50 (5 min) [2]: 0.445 | nda μM; IC50 [3, 5]: ≥ 10000 nM

Which IC50 [1, 4] does the source give for `C=CC(=O)N1CCN(c2nc(=O)n(CC3(C)CC3)c3nc(-c4c(O)cccc4F)c(Cl)cc23)[C@@H](C)C1` [Example 54-6, 6-chloro-7-(2-fluoro~ 6-hydroxyphenyl)-1-((1-methylcyclopropyl)methyl)-4-((2S)-2-methyl-4-(2-propenoyl)-1-piperazinyl) pyrido[2,3-d]pyrimidin-2(1H)-one] here?
The IC50 was 528 nM.

What about the “Coupled exchange IC50 (5 min)” value [2] of the same molecule?
The value was 0.306 | nda μM.

And the IC50 [3, 5]?
The IC50 was no less than 10000 nM.

What does the source list for `C=CC(=O)N1CCN(c2nc(=O)n(-c3cccnc3C(C)C)c3nc(-c4ccccc4F)c(Cl)cc23)[C@@H](C)C1` [Example 54-9, 6-chloro-7-(2-fluorophenyl)-4-((2S)-2-methyl-4-(2-propenoyl)-1-piperazinyl)-1-(2-(2-propanyl)-3-pyridinyl) pyrido[2,3-d]pyrimidin-2(1H)-one]?
IC50 [1, 4]: 86 nM; Coupled exchange IC50 (5 min) [2]: 0.147 | nda μM; IC50 [3, 5]: ≥ 10000 nM

How did the IC50 [1, 4] turn out when `C=CC(=O)N1CCN(c2nc(=O)n(-c3ccccc3C3CCC3)c3nc(-c4c(O)cccc4F)c(Cl)cc23)[C@@H](C)C1` [Example 54-10, 6-chloro-1-(2-cyclobutylphenyl)-7-(2-flnoro-6-hydroxyphenyl)-4-((2S)-2-methyl-4-(2-propenoyl)-1-piperazinyl) pyrido[2,3-d]pyrimidin-2(1H)-one] was run?
The IC50 was 182 nM.

What about the “Coupled exchange IC50 (5 min)” value [2] of the same molecule?
The value was 0.185 | nda μM.

What about the IC50 [3, 5] of the same molecule?
Its IC50 is no less than 10000 nM.

For `C=CC(=O)N1CCN(c2nc(=O)n(-c3cccnc3C(C)C)c3nc(-c4c(O)cccc4F)c(Cl)cc23)[C@@H](C)C1` [Example 54-11, 6-chloro-7-(2-fluoro-6-hydroxyphenyl)-4-((2S)-2-methyl-4-(2-propenoyl)-1-piperazinyl)-1-(2-(2-propanyl)-3-pyridinyl) pyrido[2,3-d]pyrimidin-2(1H)-one], which IC50 [1, 4] is on record?
The IC50 was 63 nM.

And the “Coupled exchange IC50 (5 min)” value [2]?
Its value is 0.069 | nda μM.

What about the IC50 [3, 5] of the same molecule?
The IC50 was no less than 10000 nM.

What does the source list for `C=CC(=O)N1CCN(c2nc(=O)n(-c3ccccc3C(C)C)c3nc(Oc4cccc(F)c4)c(Cl)cc23)CC1` [Example 60-23, 6-chloro-7-(3-fluorophenoxy)-1-(2-(2-propanyl)phenyl)-4-(4-(2-propenoyl)-1-piperazinyl)pyrido[2,3-d]pyrimidin-2(1H)-one]?
IC50 [1, 8]: 4490 nM; IC50 [3, 6]: 37900 nM

Which results are given for `C=CC(=O)N1CCN(c2nc(=O)n(C(C(C)C)C(C)C)c3nc(Cl)c(Cl)cc23)CC1` [Example 60-35, 6,7-dichloro-1-(2,4-dimethyl-3-pentanyl)-4-(4-(2-propenoyl)-1-piperazinyl)pyrido[2,3-d]pyrimidin-2(1H)-one]?
IC50 [1, 8]: 10700 nM; IC50 [3, 6]: 46200 nM

How did the IC50 [1, 4] turn out when `C=CC(=O)N1CCN(c2nc(=O)n(-c3ccccc3C(C)C)c3cc(-c4ccccc4F)c(Cl)cc23)[C@@H](C)C1` [Example 62-1, (S)-4-(4-acryloyl-2-methylpiperazin-1-yl)-6-chloro-7-(2-fluorophenyl)-1-(2-isopropylphenyl)quinazolin-2(1H)-one] was run?
The IC50 was 116 nM.

What about the IC50 [3, 5] of the same molecule?
The IC50 was no less than 100000 nM.

`C=CC(=O)N1CCN(c2nc(=O)n(-c3ccccc3C(C)C)c3nc(N4CCCCC4)c(Cl)cc23)[C@@H](C)C1` [Example 69-1, 6-Chloro-4-((2S)-2-methyl-4-(2-propenoyl)-1-piperazinyl)-7-(1-piperidinyl)-1-(2-(2-propanyl)phenyl)pyrido[2,3-d]pyrimidin-2(1H)-one] was tested. Which IC50 [1, 8] did it give?
The IC50 was 1860 nM.

What about the IC50 [3, 6] of the same molecule?
The IC50 was 64800 nM.

How did the IC50 [1, 4] turn out when `C=CC(=O)N1CCN(c2nc(=O)n(-c3ccccc3C(C)C)c3cc(-c4ccccc4F)c(Cl)cc23)CC1` [Example 88, 6-Chloro-7-(2-fluorophenyl)-1-(2-(2-propanyl)phenyl)-4-(4-(2-propenoyl)-1-piperazinyl)-2(1H)-quinazolinone] was run?
The IC50 was 232 nM.

What about the IC50 [1, 8] of the same molecule?
The IC50 was 243 nM.

And the IC50 [3, 6]?
The IC50 was 89400 nM.

Which IC50 [1, 4] does the source give for `C=CC(=O)N1CCN(c2nc(=O)n(CC(C)(C)C)c3cc(-c4c(O)cccc4F)c(Cl)cc23)CC1` [Example 89, 6-Chloro-1-(2,2-dimethylpropyl)-7-(2-fluoro-6-hydroxyphenyl)-4-(4-(2-propenoyl)-1-piperazinyl)-2(1H)-quinazolinone] here?
The IC50 was 687 nM.

What about the IC50 [1, 8] of the same molecule?
The IC50 was 294 nM.

And the IC50 [3, 5]?
Its IC50 is no less than 10000 nM.

And the IC50 [3, 6]?
Its IC50 is no less than 11100 nM.
